Data on one compound can be found in patent US8658566B2, “Composition and method for controlling plant diseases” (Sumitomo Chemical Company, Limited, priority 2009, dated 2014).

The assay deals with Pythium damping-off pathogen (Pythium irregulare). The experiment in a line: Cucumber seed treatment test against Pythium damping-off (Test Example 1). The note with it: cucumber (Sagamihanjiro) seed treatment, 20° C., 8 days. It counts as in vivo. How it is done: A DMSO solution of the compound I and a DMSO solution of ethaboxam were respectively prepared. These solutions were mixed to prepare a DMSO solution containing predetermined concentrations of the compound I and ethaboxam. Ten (10) μL of the DMSO solution and 1 g of cucumber (Sagamihanjiro) seeds were mixed by shaking in a 15-ml conical tube and then allowed to stand overnight to prepare treated seeds. A plastic pot was filled with sandy soil and the treated seeds were sown on it and then covered with sandy soil which had been mixed with a bran culture of Pythium damping-off pathogen (Pythium irregulare). The sown seeds were watered and then cultured in a cultivation room at 20° C. for 8 days. The occurrence of Pythium damping-off diseases was checked and the incidence of disease was calculated by Equation 1.
For comparison, a DMSO solution containing a predetermined concentration of ethaboxam was prepared and subjected to the same test and then the incidence of disease was determined.
In order to calculate a control value, the same test was conducted in which the plants had been treated with none of the test compounds and the incidence of disease was determined.
The control value was calculated by the Equation 2 based on the incidence of disease thus determined. […]

With `CCNc1nc(CC)c(C(=O)NC(C#N)c2cccs2)s1` (centres unmarked) [Ethaboxam], the Control value by setting is: (ethaboxam 2 g/100 kg seeds alone (compound I 0)) 43; (ethaboxam 10 g/100 kg seeds alone (compound I 0)) 64.
